The assay concerns Aβ42 levels in the extracellular medium. As to the kind of experiment: FRET (HTRF) assay, Aβ42 level of the extracellular medium of SH-SY5Y-APP cells. Format: cell-based. The settings on record: Homo sapiens, concentration at which reduction of Aβ42 level was half of the maximum reduction, read-out: Ab42 Potency. The method, then: Compounds were evaluated for activity in modulating Aβ42 and Aβ40 levels in the extracellular medium using a homogeneous time-resolved fluorescence (HTRF) assay as follows.
For the HTRF assay, either 5 or 10 μl of supernatant from treated cells was added to 10 or 15 μl of labeled antibody pairs, for a total volume of 20 μl, and incubated for 20-24 hours at 4° C. The labeled antibody pairs were either 8000 pg B436-XL665 and 400 pg B113 Europium, for assessing Aβ40 levels, or 8000 pg B436-XL665 and 400 pg A387 Europium, for assessing Aβ42 levels, diluted in 50 mM NaPO4, 0.2% BSA, 0.5M KF, pH 7. The fluorescence was read on a BMG Rubystar at 620 nm and 665 nm.
(Time-resolved FRET reads energy transfer from a long-lived donor to a nearby acceptor.)
As to `COc1ccc(-c2csc(Nc3ccc(OC)c(OC)c3)n2)c(OC)c1` [Compound 101], the EC50 lay in the range of 1.1 to 5 µM.

As to `COc1cc(Nc2nc(-c3ccc4c(c3)OCCO4)cs2)cc(OC)c1OC` [Compound 102], the EC50 was 5.1 to 10 µM.

As to `c1cc2c(cc1Nc1nc(-c3ccc4c(c3)OCCO4)cs1)OCO2` [Compound 103], the EC50 was 5.1 to 10 µM.

Consider `COc1ccc(-c2csc(Nc3ccc4c(c3)OCO4)n2)c(OC)c1` [Compound 104], for which the EC50 lay within 1.1 to 5 µM.

As for `c1cc2c(cc1Nc1nc(-c3ccc4c(c3)OCO4)cs1)OCO2` [Compound 105], the EC50 lay within 1.1 to 5 µM.

Take `COc1cc(Nc2nc(-c3ccc(-c4ccccn4)s3)cs2)cc(OC)c1OC` [Compound 106]: the EC50 lay in the range of 5.1 to 10 µM.

In the case of `COc1cc(Nc2nc(-c3ccc(-c4ccccc4)s3)cs2)cc(OC)c1OC` [Compound 107], the EC50 lay in the range of 10.1 to 30 µM.

Consider `COc1cc(Nc2nc(-c3ccc(F)cc3)cs2)cc(OC)c1OC` [Compound 108], for which the EC50 is 5.1 to 10 µM.

Consider `COc1cc(Nc2nc(-c3ccc(OC(F)F)cc3)cs2)cc(OC)c1OC` [Compound 109], for which the EC50 fell in the range of 10.1 to 30 µM.

On to `COc1ccc(Nc2nc(-c3ccc4c(c3)OCCO4)cs2)cc1OC` [Compound 110], for which the EC50 was in the range of 5.1 to 10 µM.

Turning to `Oc1ccc(-c2csc(Nc3ccc4c(c3)OCO4)n2)cc1O` [Compound 111], the EC50 lay within 1.1 to 5 µM.

Take `COc1cc(Nc2nc(-c3ccc(O)c(O)c3)cs2)cc(OC)c1OC` [Compound 112]: the EC50 was 10.1 to 30 µM.

Consider `COc1ccc(Nc2nc(-c3ccc(N4CCCC4)cc3)cs2)cc1OC` [Compound 113], for which the EC50 fell in the range of 5.1 to 10 µM.

As to `COc1ccc(-c2csc(Nc3ccc(N(C)C)cc3)n2)c(OC)c1` [Compound 114], the EC50 was in the range of 0.2 to 1 µM.

Consider `CN1CCN(c2ccc(-c3csc(Nc4ccc5c(c4)OCO5)n3)cc2)CC1` [Compound 115], for which the EC50 lay within 1.1 to 5 µM.

With `COc1cc(Nc2nc(-c3ccc(N4CCN(C)CC4)cc3)cs2)cc(OC)c1OC` [Compound 116], the EC50 is 1.1 to 5 µM.

`CN1CCN(c2ccc(-c3csc(Nc4ccc(N(C)C)cc4)n3)cc2)CC1` [Compound 117]: the EC50 lay in the range of 5.1 to 10 µM.

Consider `Oc1ccc(Nc2nc(-c3ccc4c(c3)OCO4)cs2)cc1` [Compound 118], for which the EC50 was in the range of 5.1 to 10 µM.

As for `COc1ccc(Nc2nc(-c3ccc4c(c3)CCC(=O)N4)cs2)c(OC)c1` [Compound 120], the EC50 is 10.1 to 30 µM.

As for `Oc1ccc(Nc2nc(-c3ccc(-c4ccccc4)cc3)cs2)cc1` [Compound 121], the EC50 lay within 5.1 to 10 µM.

As to `CCN(CC)c1ccc(-c2csc(Nc3ccc(OC)cc3OC)n2)cc1` [Compound 122], the EC50 fell in the range of 1.1 to 5 µM.

In the case of `CCN(CC)c1ccc(-c2csc(Nc3ccc(O)cc3)n2)cc1` [Compound 123], the EC50 is 10.1 to 30 µM.

As to `Oc1ccc(Nc2nc(-c3ccc4ccccc4c3)cs2)cc1` [Compound 124], the EC50 was in the range of 5.1 to 10 µM.

For `COc1ccc(-c2csc(Nc3ccc(I)cc3)n2)c(OC)c1` [Compound 125], the EC50 lay within 1.1 to 5 µM.

Take `CN1CCN(c2ccc(-c3csc(Nc4ccc(I)cc4)n3)cc2)CC1` [Compound 126]: the EC50 lay in the range of 1.1 to 5 µM.

For the compound `CN1CCN(c2ccc(-c3csc(Nc4ccc5ccccc5c4)n3)cc2)CC1` [Compound 127], the EC50 lay within 1.1 to 5 µM.

`CN1CCN(c2ccc(-c3csc(Nc4cccc5cccnc45)n3)cc2)CC1` [Compound 128]: the EC50 was 1.1 to 5 µM.

As for `COc1ccc(-c2csc(Nc3ccc(Br)cc3)n2)c(OC)c1` [Compound 129], the EC50 was in the range of 0.2 to 1 µM.

Turning to `COc1ccccc1-c1csc(Nc2ccc(Br)cc2)n1` [Compound 130], the EC50 lay in the range of 10.1 to 30 µM.

Consider `COc1cccc(Nc2nc(-c3ccc(N=Nc4ccccc4)cc3)cs2)c1` [Compound 131], for which the EC50 fell in the range of 10.1 to 30 µM.

Consider `CCc1ccc(Nc2nc(-c3ccc(N4CCN(C)CC4)cc3)cs2)cc1` [Compound 132], for which the EC50 lay in the range of 10.1 to 30 µM.

With `CCN(CC)c1ccc(Nc2nc(-c3ccc(-n4ccnc4)cc3)cs2)c(C)c1` [Compound 133], the EC50 fell in the range of 0.2 to 1 µM.

For the compound `CN1CCN(c2ccc(-c3csc(Nc4ccc5c(c4)OCCO5)n3)cc2)CC1` [Compound 134], the EC50 was 1.1 to 5 µM.

As for `COc1cccc(CNc2nc(-c3ccc(N4CCN(C)CC4)cc3)cs2)c1` [Compound 135], the EC50 was 1.1 to 5 µM.

`CCOc1ccc(Nc2nc(-c3ccc(N4CCN(C)CC4)cc3)cs2)cc1` [Compound 136]: the EC50 is 10.1 to 30 µM.

For the compound `COc1ccc(Nc2nc(-c3ccc(N4CCN(C)CC4)cc3)cs2)cc1` [Compound 137], the EC50 was in the range of 1.1 to 5 µM.

As to `CN1CCN(c2ccc(-c3csc(Nc4ccc(Br)cc4)n3)cc2)CC1` [Compound 138], the EC50 fell in the range of 10.1 to 30 µM.

As for `CN1CCN(c2ccc(-c3csc(Nc4ccc(Cl)c(Cl)c4)n3)cc2)CC1` [Compound 139], the EC50 is 0.2 to 1 µM.

On to `CN1CCN(c2ccc(-c3csc(Nc4ccc5c(cnn5C)c4)n3)cc2)CC1` [Compound 140], for which the EC50 is 5.1 to 10 µM.

For `CN1CCN(c2ccc(-c3csc(Nc4ccc5[nH]ncc5c4)n3)cc2)CC1` [Compound 141], the EC50 is 1.1 to 5 µM.

As for `CN1CCN(c2ccc(-c3csc(Nc4ccc(Oc5ccccc5)cc4)n3)cc2)CC1` [Compound 142], the EC50 was 1.1 to 5 µM.

Take `c1cn(-c2ccc(-c3csc(Nc4ccc5[nH]ccc5c4)n3)cc2)cn1` [Compound 143]: the EC50 was in the range of 1.1 to 5 µM.

Consider `CSc1cccc(Nc2nc(-c3ccc(-n4ccnc4)cc3)cs2)c1` [Compound 144], for which the EC50 was 0.2 to 1 µM.

As for `CSc1cccc(Nc2nc(-c3ccc(N4CCN(C)CC4)cc3)cs2)c1` [Compound 145], the EC50 was 1.1 to 5 µM.

Regarding `CC(C)N(c1ccccc1)c1ccc(Nc2nc(-c3ccc(-n4ccnc4)cc3)cs2)cc1` [Compound 146], the EC50 was 1.1 to 5 µM.

Consider `CCN(CC)c1ccc(Nc2nc(-c3ccc(-n4cnc(-c5ccccc5)c4)cc3)cs2)c(C)c1` [Compound 147], for which the EC50 was in the range of 1.1 to 5 µM.

On to `CN1CCN(c2ccc(-c3csc(Nc4ccc(Cl)cc4)n3)cc2)CC1` [Compound 148], for which the EC50 lay within 0.2 to 1 µM.

For the compound `CN(C)S(=O)(=O)c1ccc(-c2csc(Nc3ccc(Cl)cc3)n2)cc1` [Compound 149], the EC50 lay within 5.1 to 10 µM.

For the compound `COc1ccc(-c2csc(Nc3ccc(Cl)cc3)n2)c(OC)c1` [Compound 150], the EC50 was 1.1 to 5 µM.

On to `CN1CCN(c2ccc(-c3csc(Nc4cccc(Cl)c4)n3)cc2)CC1` [Compound 151], for which the EC50 was 0.2 to 1 µM.

For `Clc1cccc(Nc2nc(-c3ccc(-n4ccnc4)cc3)cs2)c1` [Compound 152], the EC50 was 10.1 to 30 µM.

For the compound `COc1ccc(-c2csc(Nc3cccc(Cl)c3)n2)c(OC)c1` [Compound 153], the EC50 lay in the range of 5.1 to 10 µM.

For `Clc1cccc(Nc2nc(-c3ccc4c(c3)OCO4)cs2)c1` [Compound 154], the EC50 lay within 10.1 to 30 µM.

On to `CN1CCN(c2ccc(-c3csc(Nc4ccc5[nH]cnc5c4)n3)cc2)CC1` [Compound 155], for which the EC50 is 1.1 to 5 µM.

As to `c1cn(-c2ccc(-c3csc(Nc4ccc5[nH]cnc5c4)n3)cc2)cn1` [Compound 156], the EC50 lay within 1.1 to 5 µM.

On to `CN(C)S(=O)(=O)c1ccc(-c2csc(Nc3ccc4[nH]cnc4c3)n2)cc1` [Compound 157], for which the EC50 was 10.1 to 30 µM.

For the compound `CCN(CC)c1ccc(-c2csc(Nc3ccc4[nH]cnc4c3)n2)cc1` [Compound 158], the EC50 was in the range of 10.1 to 30 µM.

`c1ccc2cc(-c3csc(Nc4ccc5[nH]cnc5c4)n3)ccc2c1` [Compound 159]: the EC50 lay in the range of 5.1 to 10 µM.

(Values after patent US8017629B2, “Compounds and uses thereof in modulating amyloid β” (Neurogenetic Pharmaceuticals, Inc., priority 2003, dated 2011).)
